The test system of this experiment is VEGF-stimulated HUVEC proliferation (Human Umbilical Vein Endothelial cells). Description: HUVEC Proliferation Assay. Type of experiment: cell-based. Conditions: VEGF 50 ng/mL, 72 h, CyQuant fluorescent dye, read-out: inhibited VEGF-stimulated HUVEC proliferation at a level. The method, then:
Human Umbilical Vein Endothelial cells are purchased from Clonetics, Inc., as cryopreserved cells harvested from a pool of donors. These cells, at passage 1, are thawed and expanded in EBM-2 complete medium, until passage 2 or 3. The cells are trypsinized, washed in DMEM+10% FBS+antibiotics, and spun at 1000 rpm for 10 min. Prior to centrifugation of the cells, a small amount is collected for a cell count. After centrifugation, the medium is discarded, and the cells are resuspended in the appropriate volume of DMEM+10% FBS+antibiotics to achieve a concentration of 3×10^5 cells/mL. Another cell count is performed to confirm the cell concentration. The cells are diluted to 3×10^4 cells/mL in DMEM+10% FBS+antibiotics, and 100 μL of cells are added to a 96-well plate. The cells are incubated at 37° C. for 22 h.
Prior to the completion of the incubation period, compound dilutions are prepared. Five-point, five-fold serial dilutions are prepared in DMSO, at concentrations 400-fold greater than the final concentrations desired. 2.5 μL of each compound dilution are diluted further in a total of 1 mL DMEM+10% FBS+antibiotics (400× dilution). Medium containing 0.25% DMSO is also prepared for the 0 μM compound sample. At the 22 h time point, the medium is removed from the cells, and 100 μL of each compound dilution is added. The cells are incubated at 37° C. for 2-3 h.
During the compound pre-incubation period, the growth factors are diluted to the appropriate concentrations. Solutions of DMEM+10% FBS+antibiotics, containing either VEGF or bFGF at the following concentrations: 50, 10, 2, 0.4, 0.08, and 0 ng/mL are prepared. For the compound-treated cells, solutions of VEGF at 550 ng/mL or bFGF at 220 ng/mL for 50 ng/mL or 20 ng/mL final concentrations, respectively, are prepared since 10 μL of each will be added to the cells (110 μL final volume). At the appropriate time after adding the compounds, the growth factors are added. VEGF is added to one set of plates, while bFGF is added to another set of plates. For the growth factor control curves, the media on wells B4-G6 of plates 1 and 2 are replaced with media containing VEGF or bFGF at the varying concentrations (50-0 ng/mL). The cells are incubated at 37° C. for an additional 72 h.
At the completion of the 72 h incubation period, the medium is removed, and the cells are washed twice with PBS. After the second wash with PBS, the plates are tapped gently to remove excess PBS, and the cells are placed at −70° C. for at least 30 min. The cells are thawed and analyzed using the CyQuant fluorescent dye (Molecular Probes C-7026), following the manufacturer's recommendations. The plates are read on a Victor/Wallac 1420 workstation at 485 nm/530 nm (excitation/emission). Raw data are collected and analyzed using a 4-parameter fit equation in XLFit. IC50 values are then determined.

Bounds are passed on as bounds.

As to `O=C(Nc1ccc2c(c1)NCC21CC1)c1cccnc1NCc1ccnc2[nH]ccc12` [Example 8], the IC50 was less than 500 nM.

Take `CC1(C)CNCc2cc(NC(=O)c3cccnc3NCc3ccnc4[nH]ccc34)cnc21` [Example 11]: the IC50 is less than 500 nM.

As to `O=C(Nc1ccc(C(O)(C(F)(F)F)C(F)(F)F)cc1)c1cccnc1NCc1ccnc2[nH]ccc12` [Example 17, 2-[(1H-Pyrrolo[2,3-b]pyridin-4-ylmethyl)amino]-N-{4-[2,2,2-trifluoro-1-hydroxy-1-(trifluoromethyl)ethyl]phenyl}nicotinamide], the IC50 is less than 500 nM.

`O=C(Nc1cccc(C(OC[C@@H]2CCCN2)(C(F)(F)F)C(F)(F)F)c1)c1cccnc1NCc1ccnc2[nH]ccc12` [Example 19, (S)-2-((1H-pyrrolo[2,3-b]pyridin-4-yl)methylamino)-N-(3-(1,1,1,3,3,3-hexafluoro-2-(pyrrolidin-2-ylmethoxy)propan-2-yl)phenyl)nicotinamide]: the IC50 was less than 500 nM.

On to `O=C(Nc1ccc(C(OC[C@@H]2CCCN2)(C(F)(F)F)C(F)(F)F)cc1)c1cccnc1NCc1ccnc2[nH]ccc12` [Example 20, (S)-2-((1H-pyrrolo[2,3-b]pyridin-4-yl)methylamino)-N-(4-(1,1,1,3,3,3-hexafluoro-2-(pyrrolidin-2-ylmethoxy)propan-2-yl)phenyl)nicotinamide], for which the IC50 is less than 500 nM.

With `CC1(C)CN(C(=O)[C@@H]2CCN2)c2cc(NC(=O)c3cccnc3NCc3ccnc4[nH]ccc34)ccc21` [Example 23, N-{1-[(2S)-Azetidin-2-ylcarbonyl]-3,3-dimethyl-2,3-dihydro-1H-indol-6-yl}-2-[(1H-pyrrolo[2,3-b]pyridin-4-ylmethyl)amino]nicotinamide], the IC50 is less than 500 nM.

With `CC1(C)CNCc2cc(NC(=O)c3cccnc3NCc3ccnc4c3CCN4)ccc21` [Example 25, 2-[(2,3-Dihydro-1H-pyrrolo[2,3-b]pyridin-4-ylmethyl)amino]-N-(4,4-dimethyl-1,2,3,4-tetrahydroisoquinolin-7-yl)nicotinamide], the IC50 is less than 500 nM.

For the compound `CN1CCC[C@H]1COc1cc(NC(=O)c2cccnc2NCc2ccnc3[nH]ccc23)cc(C(F)(F)F)c1` [Example 35, N-[3-{[(2S)-1-methylpyrrolidin-2-yl]methoxy}-5-(trifluoromethyl)phenyl]-2-[(1H-pyrrolo[2,3-b]pyridin-4-ylmethyl)amino]nicotinamide], the IC50 was less than 500 nM.

In the case of `Cc1nc2cc(NC(=O)c3ccc(F)nc3NCc3ccnc4[nH]ccc34)ccc2s1` [Example 37, 2-((1H-Pyrrolo[2,3-b]pyridin-4-yl)methylamino)-6-fluoro-N-(2-methylbenzo[d]thiazol-5-yl)nicotinamide], the IC50 was less than 500 nM.

Turning to `COC(c1ccc(NC(=O)c2cccnc2NCc2ccnc3[nH]ccc23)cc1)(C(F)(F)F)C(F)(F)F` [Example 44, 2-[(1H-Pyrrolo[2,3-b]pyridin-4-ylmethyl)-amino]-N-[4-(2,2,2-trifluoro-1-methoxy-1-trifluoromethyl-ethyl)-phenyl]-nicotinamide], the IC50 was less than 500 nM.

Regarding `O=C(Nc1ccc(C(F)(F)C(F)(F)F)c(CN2CCNCC2)c1)c1cccnc1NCc1ccnc2[nH]ccc12` [Example 45, N-(4-Pentafluoroethyl-3-piperazin-1-ylmethyl-phenyl)-2-[(1H-pyrrolo[2,3-b]pyridin-4-ylmethyl)-amino]-nicotinamide], the IC50 was less than 500 nM.

On to `CN1CCN(Cc2cc(NC(=O)c3cccnc3NCc3ccnc4[nH]ccc34)ccc2C(F)(F)C(F)(F)F)CC1` [Example 46, N-[3-(4-Methyl-piperazin-1-ylmethyl)-4-pentafluoroethyl-phenyl]-2-[(1H-pyrrolo[2,3-b]pyridin-4-ylmethyl)-amino]-nicotinamide], for which the IC50 was less than 500 nM.

On to `O=C(Nc1cc(O[C@@H]2CCOC2)cc(C(F)(F)F)c1)c1cccnc1NCc1ccnc2[nH]ccc12` [Example 47, 2-[(1H-pyrrolo[2,3-b]pyridin-4-ylmethyl)amino]-N-[3-[(3R)-tetrahydrofuran-3-yloxy]-5-(trifluoromethyl)phenyl]nicotinamide], for which the IC50 is less than 500 nM.

With `O=C(Nc1ccc2ncccc2c1)c1cccnc1NCc1ccnc2[nH]ccc12` [Example 53, 2-[(1H-Pyrrolo[2,3-b]pyridin-4-ylmethyl)-amino]-N-quinolin-6-yl-nicotinamide], the IC50 is less than 500 nM.

For `O=C(Nc1ccc2ccncc2c1)c1cccnc1NCc1ccnc2[nH]ccc12` [Example 55, N-Isoquinolin-7-yl-2-[(1H-pyrrolo[2,3-b]pyridin-4-ylmethyl)-amino]-nicotinamide], the IC50 was less than 500 nM.

In the case of `O=C(Nc1ccc(C(F)(F)F)c(OCC2CCCO2)c1)c1cccnc1NCc1ccnc2[nH]ccc12` (centres unmarked) [Example 57, 2-[(1H-Pyrrolo[2,3-b]pyridin-4-ylmethyl)-amino]-N-[3-(tetrahydro-furan-2-ylmethoxy)-4-trifluoromethyl-phenyl]-nicotinamide], the IC50 is less than 500 nM.

`CN1CCC(Cc2cc(NC(=O)c3cccnc3NCc3ccnc4[nH]ccc34)cc(C(F)(F)F)c2)CC1` [Example 58, N-[3-(1-Methyl-piperidin-4-ylmethyl)-5-trifluoromethyl-phenyl]-2-[(1H-pyrrolo[2,3-b]pyridin-4-ylmethyl)-amino]-nicotinamide]: the IC50 was less than 500 nM.

Regarding `O=C(Nc1cc(CCCN2CCOCC2)cc(C(F)(F)F)c1)c1cccnc1NCc1ccnc2[nH]ccc12` [Example 60, N-(3-(3-(4-morpholinyl)propyl)-5-(trifluoromethyl)phenyl)-2-((1H-pyrrolo[2,3-b]pyridin-4-ylmethyl)amino)-3-pyridinecarboxamide], the IC50 is less than 500 nM.

Consider `O=C(Nc1cc(CCCN2CCCCC2)cc(C(F)(F)F)c1)c1cccnc1NCc1ccnc2[nH]ccc12` [Example 62, N-[3-(3-Piperidin-1-yl-propyl)-5-trifluoromethyl-phenyl]-2-[(1H-pyrrolo[2,3-b]pyridin-4-ylmethyl)-amino]-nicotinamide], for which the IC50 is less than 500 nM.

Consider `O=C(Nc1ccc(C(F)(F)C(F)(F)F)c(OCCN2CCCC2)c1)c1cccnc1NCc1ccnc2[nH]ccc12` [Example 63, N-[4-pentafluoroethyl-3-(2-pyrrolidin-1-yl-ethoxy)-phenyl]-2-[(1H-pyrrolo[2,3-b]pyridin-4-ylmethyl)-amino]-nicotinamide], for which the IC50 is less than 500 nM.

Take `CC1(C)CCNc2cc(NC(=O)c3cccnc3NCc3ccnc4[nH]ncc34)ccc21` [Example 71, N-(4,4-Dimethyl-1,2,3,4-tetrahydro-7-quinolinyl)-2-((1H-pyrazolo[3,4-b]pyridin-4-ylmethyl)amino)-3-pyridinecarboxamide]: the IC50 was less than 500 nM.

With `CC1(C)CCNc2cc(NC(=O)c3cccnc3NCc3ccnc4c3CC(=O)N4)ccc21` [Example 73, N-(4,4-Dimethyl-1,2,3,4-tetrahydro-quinolin-7-yl)-2-[(2-oxo-2,3-dihydro-1H-pyrrolo[2,3-b]pyridin-4-ylmethyl)-amino]-nicotinamide], the IC50 was less than 500 nM.

In the case of `Cc1nc2cc(NC(=O)c3cc(F)cnc3NCc3ccnc4[nH]ccc34)ccc2s1` [Example 77, 5-fluoro-N-(2-methyl-1,3-benzothiazol-5-yl)-2-((1H-pyrrolo[2,3-b]pyridin-4-ylmethyl)amino)-3-pyridinecarboxamide], the IC50 is less than 500 nM.

`CC(C)(C)c1ccc(NC(=O)c2cc(Cl)cnc2NCc2ccnc3[nH]ccc23)cc1` [Example 88, 5-chloro-N-(4-(1,1-dimethylethyl)phenyl)-2-((1H-pyrrolo[2,3-b]pyridin-4-ylmethyl)amino)-3-pyridinecarboxamide]: the IC50 is less than 500 nM.

Turning to `O=C(Nc1ccc(Cl)c(C(F)(F)F)c1)c1cc(F)cnc1NCc1ccnc2[nH]ccc12` [Example 90, N-(4-chloro-3-(trifluoromethyl)phenyl)-5-fluoro-2-((1H-pyrrolo[2,3-b]pyridin-4-ylmethyl)amino)-3-pyridinecarboxamide], the IC50 is less than 500 nM.

For the compound `O=C(Nc1ccc(Cl)cc1)c1cc(F)cnc1NCc1ccnc2[nH]ccc12` [Example 91, N-(4-chlorophenyl)-5-fluoro-2-((1H-pyrrolo[2,3-b]pyridin-4-ylmethyl)amino)-3-pyridinecarboxamide], the IC50 was less than 500 nM.

(Values after patent US8247556B2, “Method for preparing 6-substituted-7-aza-indoles” (Amgen Inc., priority 2005, dated 2012).)
